Assay results published in US20240316155A1, “COMPOSITION FOR TREATING SHORT BOWEL SYNDROME” (ZEALAND PHARMA A/S, priority 2021, published 2024).
*1 amine or outer side, *2 acyl side, *3 side chain or, on linkers, in order; H or OH if unused. Side-chain parts run from the residue outwards. [ ]: non-standard residue; d: D form. The star is where a group is joined. C18 diacid = O=C(O)CCCCCCCCCCCCCCCCC(=O)*; γGlu = O=C(O)[C@H](CCC(=O)[*:2])N[*:1]; Aib = CC(C)(N)C(=O)O

Legend:
[1] = system: SBS patients; details: cited from earlier work
[2] = system: SBS mice; details: cited from earlier work
[3] = system: Short Bowel Syndrome (SBS) mice; test: Short bowel syndrome (SBS) mice, ileum and cecum resection (ICR): postoperative survival, body weight, dietary intake; type: in vivo, C57BL/6J mice; details: ICR-resected mice
From the text: (§1) Adult, male C57BL/6J mice with ˜30 g body weight of ˜4 months received a 12-cm ileum and cecum resection (ICR) with jejunocolonic anastomosis (see FIG. 1, middle). The mice were then randomly assigned to either Cpd 18 or vehicle treatment As control for the abdominal surgery, the sham group was included which had laparotomy, bowel exposure, transection and end-to-end anastomosis but no resection (see FIG. 1, bottom). To prevent intestinal obstruction, all mice were switched to liquid diet 2 days before surgery and maintained on this diet until the end of the experiment. Throughout the experiment, animals were singly housed. All mice were studied with the intention to survive to day 14.
Briefly, mice were anesthetized by i. p. injection of ketamine (100 mg/kg bw) and xylazine (15 mg/kg bw) and orally intubated and ventilated. After midline incision, the distal small bowel and the cecum were exposed and then transected 12 cm proximal to the ileocecal junction and immediately distal to the cecum. The resected bowel was removed, and the length of the specimen was measured. An end-to-end, jejunocolonic anastomosis was created and the abdomen was closed. In the sham group, laparotomy, bowel exposure, transection and end-to-end anastomosis but no resection was performed. Immediately after surgery, all mice were weighed and received 1 ml isotonic saline subcutaneously and carprofen 5 mg/kg body weight. All surgical procedures were performed by the same surgeon. Mice were kept in a heated terrarium (29° C.) for 4 h and then returned to individual cages with free access to liquid food and water. The liquid diet was provided in feeding tubes. Mice were allowed to recover for a day after surgery, and then injected once daily with 30 nmol/kg body weight of Cpd 18. […]
Mice were scored for wellbeing daily as described (Berlin et al. 2019). If the wellness score dropped to below 4 pts, or when weight loss exceeded 20%, the mouse was immediately killed and not analyzed further. […]
Body weight (FIG. 6) and food consumption (FIG. 7) was measured daily. […]

[4] = system: Short Bowel Syndrome (SBS) mice; test: SBS mice (ICR): stool water content; type: in vivo, C57BL/6J mice; details: ICR-resected mice
From the text: as §1
Briefly, mice were anesthetized by i. p. injection of ketamine (100 mg/kg bw) and xylazine (15 mg/kg bw) and orally intubated and ventilated. After midline incision, the distal small bowel and the cecum were exposed and then transected 12 cm proximal to the ileocecal junction and immediately distal to the cecum. The resected bowel was removed, and the length of the specimen was measured. An end-to-end, jejunocolonic anastomosis was created and the abdomen was closed. In the sham group, laparotomy, bowel exposure, transection and end-to-end anastomosis but no resection was performed. Immediately after surgery, all mice were weighed and received 1 ml isotonic saline subcutaneously and carprofen 5 mg/kg body weight. All surgical procedures were performed by the same surgeon. Mice were kept in a heated terrarium (29° C.) for 4 h and then returned to individual cages with free access to liquid food and water. The liquid diet was provided in feeding tubes. Mice were allowed to recover for a day after surgery, and then injected once daily with 30 nmol/kg body weight of Cpd 18. 50 mM Histidine buffer pH 6, 200 mM Mannitol served as vehicle control.
Stools were collected on selected days throughout the experiment. Stool water content was assessed by collecting stools in a pre-weighed tube, weighing, and then drying overnight at 80° C. and reweighing the dried stools. […]

[5] = system: Short Bowel Syndrome (SBS) mice; test: SBS mice (ICR): visual assessment of stool consistency with reference to Bristol Stool type; type: in vivo, C57BL/6J mice
From the text: as §1
Briefly, mice were anesthetized by i. p. injection of ketamine (100 mg/kg bw) and xylazine (15 mg/kg bw) and orally intubated and ventilated. After midline incision, the distal small bowel and the cecum were exposed and then transected 12 cm proximal to the ileocecal junction and immediately distal to the cecum. The resected bowel was removed, and the length of the specimen was measured. An end-to-end, jejunocolonic anastomosis was created and the abdomen was closed. In the sham group, laparotomy, bowel exposure, transection and end-to-end anastomosis but no resection was performed. […]

Compound	effect on diarrhea [1]	effect on treatment of diarrhea [2]	survival rate after 14 days ([3]; 30 nmol/kg once daily from day 1 after surgery, vehicle 60%, sham 90%) [%]	postoperative relative body weight (relative to initial weight) ([3]; 30 nmol/kg once daily, compared to vehicle, up to day 14)	postoperative dietary intake ([3]; 30 nmol/kg once daily, from day 2 onwards, compared to vehicle)	stool water content ([4]; 30 nmol/kg once daily, day 14, vehicle approximately 75%, sham 50%)	stool water content compared to vehicle ([4]; 30 nmol/kg once daily, from day 7)	stool water content ([4]; after 2 days)	stool consistency, Bristol Stool type ([5]; day 5 after resection, vehicle Type 6 or 7, sham Type 3 or 4)	stool consistency, Bristol Stool type ([5]; day 14, vehicle Type 6 or 7)
CC[C@H](C)[C@H](NC(=O)[C@H](Cc1ccccc1)NC(=O)[C@H](CC(=O)O)NC(=O)[C@H](CCCNC(=N)N)NC(=O)[C@H](C)NC(=O)[C@H](C)NC(=O)[C@H](CC(C)C)NC(=O)[C@H](CC(N)=O)NC(=O)[C@H](CC(=O)O)NC(=O)[C@H](CC(C)C)NC(=O)[C@@H](NC(=O)[C@@H](NC(=O)[C@H](CC(N)=O)NC(=O)[C@H](CCSC)NC(=O)[C@H](CCC(=O)O)NC(=O)[C@H](CC(=O)O)NC(=O)[C@H](CO)NC(=O)[C@H](Cc1ccccc1)NC(=O)[C@H](CO)NC(=O)CNC(=O)[C@H](CC(=O)O)NC(=O)CNC(=O)[C@@H](N)Cc1c[nH]cn1)[C@@H](C)O)[C@@H](C)CC)C(=O)N[C@@H](CC(N)=O)C(=O)N[C@@H](Cc1c[nH]c2ccccc12)C(=O)N[C@@H](CC(C)C)C(=O)N[C@H](C(=O)N[C@@H](CCC(N)=O)C(=O)N[C@H](C(=O)N[C@@H](CCCCN)C(=O)N[C@H](C(=O)N[C@H](C(=O)N[C@@H](CC(=O)O)C(=O)O)[C@@H](C)O)[C@@H](C)CC)[C@@H](C)O)[C@@H](C)CC [Teduglutide, [Gly2]-hGLP-2 (1-33)]	some effect	intermittent effect	–	–	–	–	–	–	–	–
H-H[Aib]EGSFTSELATILDK([γGlu-C18 diacid])QAARDFIAWLIQHKITD-OH [Cpd 18]	–	–	74	differed from the vehicle group after six days onwards by starting to increase towards the initial weight	lower	approximately 50%	significantly reduced compared to vehicle	approximately 75%	Type 4 or 5	type 4
